Assay [1] deals with A431cells (human epidermoid carcinoma). Put plainly: In vitro tumor cell proliferation assay (Cell Titer-Glo luminescent cell viability), A431 cells. The class given is cell-based. As to conditions: A-431, 72 h, 72 hours drug exposure, 10% Fetal Bovine Serum, ATP luminescence readout, read-out: IC50 (50% inhibition of cell proliferation). The source says:
(§1) In vitro Tumor Cell Proliferation Assay
(§2) The tumor cell proliferation assay used to test the compounds of the present invention involves a readout called Cell Titer-Glow® Luminescent Cell Viability Assay developed by Promega (Cunningham, B A “A Growing Issue: Cell Proliferation Assays, Modern kits ease quantification of cell growth” The Scientist 2001, 15(13), 26, and Crouch, S P et al., “The use of ATP bioluminescence as a measure of cell proliferation and cytotoxicity” Journal of Immunological Methods 1993, 160, 81–88), that measures inhibition of cell proliferation. Generation of a luminescent signal corresponds to the amount of ATP present, which is directly proportional to the number of metabolically active (proliferating) cells.
(§3) A431cells (human epidermoid carcinoma, ATCC # HTB-20) and BT474 (human breast carcinoma, ATCC # CRL-1555) were plated at a density of 2.5×10^3 cells/well in 96 well black-clear bottom tissue culture plates in RPMI media with 10% Fetal Bovine Serum and incubated at 37° C. Twenty-four hours later, test compounds are added at a final concentration range from as high 100 μM to as low 64 pM depend on the activities of the tested compounds in serial dilutions at a final DMSO concentration of 0.1%. Cells were incubated for 72 hours at 37° C. in complete growth media after addition of the test compound. After 72 hours of drug exposure, the plates were equilibrated to room temperature for approximately 30 min. Then, using a Promega Cell Titer Glo Luminescent® assay kit, lysis buffer containing 100 microliters of the enzyme luciferase and its substrate, luciferin mixture, was added to each well. The plates were mixed for 2 min on orbital shaker to ensure cell lysis and incubated for 10 min at room temperature to stabilize luminescence signal. The samples were read on VICTOR 2 using Luminescence protocol, and analyzed with Analyze5 software to generate IC50 values.
(In general: ATP-based viability assays read luminescence as a measure of living cells.)

In assay [2] the test system is BT474 (human breast carcinoma). Put plainly: In vitro tumor cell proliferation assay (Cell Titer-Glo luminescent cell viability), BT474 cells. The following applies: BT-474, 72 hours drug exposure, 10% Fetal Bovine Serum, ATP luminescence readout, read-out: IC50 (50% inhibition of cell proliferation). The assay is classed as cell-based.
Text: as §1, §2, §3

Some results are limits rather than exact numbers.

Consider `OCCC1CCc2c(sc3ncnc(Nc4ccc(F)c(Cl)c4)c23)C1` (centres unmarked) [Example 64, 2-{4-[(3-chloro-4-fluorophenyl)amino]-5,6,7,8-tetrahydro[1]benzothieno[2,3-d]pyrimidin-7-yl}ethanol], for which the IC50 in assay [1] and in assay [2] was less than 50 µM in each case.

On to `Cc1ccc(Oc2ccc(Nc3ncnc4sc5c(c34)CCC(CCN(C)C)C5)cc2C)cn1` (centres unmarked) [Example 226], for which the values for the IC50 in assay [1] and in assay [2] were less than 50 µM and less than 5 µM, respectively.

Consider `O=C(CC1CCc2c(sc3ncnc(Nc4cccc(Br)c4)c23)C1)N1CCOCC1` (centres unmarked) [Example 70], for which the IC50 was less than 5 µM in assay [1] and less than 50 µM in assay [2].

On to `COCCN(C)C(=O)C1CCc2c(sc3ncnc(Nc4cccc(Br)c4)c23)C1` (centres unmarked) [Example 31, 4-[(3-bromophenyl)amino]-N-(2-methoxyethyl)-N-methyl-5,6,7,8-tetrahydro[1]benzothieno[2,3-d]pyrimidine-7-carboxamide], for which the IC50 in assay [1] and in assay [2] was less than 50 µM throughout.

With `CCOC(=O)C1CCc2c(sc3ncnc(Nc4ccc(Cl)cc4F)c23)C1` (centres unmarked) [Example 42, Ethyl 4-[(4-chloro-2-fluorophenyl)amino]-5,6,7,8-tetrahydro[1]benzothieno[2,3-d]pyrimidine-7-carboxylate], the IC50 was less than 50 µM in assay [1] and less than 5 µM in assay [2].

Consider `COCCNC(=O)C1CCc2c(sc3ncnc(Nc4ccc(Br)cc4F)c23)C1` (centres unmarked) [Example 23, 4-[(4-bromo-2-fluorophenyl)amino]-N-(2-methoxyethyl)-5,6,7,8-tetrahydro[1]benzothieno[2,3-d]pyrimidin-7-carboxamide], for which the IC50 in assay [1] and in assay [2] was less than 50 µM each time.

`CNCCC1CCc2c(sc3ncnc(Nc4ccc(Oc5ccc(C)nc5)c(C)c4)c23)C1` (centres unmarked) [Example 232, 7-[2-(methylamino)ethyl]-N-{3-methyl-4-[(6-methylpyridin-3-yl)oxy]phenyl}-5,6,7,8-tetrahydro[1]benzothieno[2,3-d]pyrimidin-4-amine]: the IC50 is less than 50 µM in assay [1] and less than 5 µM in assay [2].

As to `COCCNCCC1CCc2c(sc3ncnc(Nc4ccc(Oc5ccc(C)nc5)c(C)c4)c23)C1` (centres unmarked) [Example 216, 7-{2-[(2-methoxyethyl)amino]ethyl}-N-{3-methyl-4-[(6-methylpyridin-3-yl)oxy]phenyl}-5,6,7,8-tetrahydro[1]benzothieno[2,3-d]pyrimidin-4-amine], the IC50 was less than 50 µM in assay [1] and less than 5 µM in assay [2].

Regarding `CCOC(=O)CC1CCc2c(sc3ncnc(Nc4cccc(Br)c4)c23)C1` (centres unmarked) [Example 63, ethyl {4-[(3-bromophenyl)amino]-5,6,7,8-tetrahydro[1]benzothieno[2,3-d]pyrimidin-7-yl}acetate], the IC50 in assay [1] and in assay [2] was less than 50 µM each time.

In the case of `COCCN(C)C(=O)CC1CCc2c(sc3ncnc(Nc4cccc(Br)c4)c23)C1` (centres unmarked) [Example 83, 2-{4-[(3-bromophenyl)amino]-5,6,7,8-tetrahydro[1]benzothieno[2,3-d]pyrimidin-7-yl}-N-(2-methoxyethyl)-N-methylacetamide], the IC50 was less than 5 µM in assay [1] and less than 50 µM in assay [2].

As for `OCCNCCC1CCc2c(sc3ncnc(Nc4ccc(OCc5cccc(F)c5)c(Cl)c4)c23)C1` (centres unmarked) [Example 163, 2-({2-[4-({3-chloro-4-[(3-fluorobenzyl)oxy]phenyl}amino)-5,6,7,8-tetrahydro[1]benzothieno[2,3-d]pyrimidin-7-yl]ethyl}amino)ethanol], the IC50 in assay [1] and in assay [2] was less than 5 µM in each case.

For the compound `COCCNCCC1CCc2c(sc3ncnc(Nc4ccc5c(cnn5Cc5ccccc5)c4)c23)C1` (centres unmarked) [Example 205, N-(1-benzyl-1H-indazol-5-yl)-7-{2-[(2-methoxyethyl)amino]ethyl}-5,6,7,8-tetrahydro[1]benzothieno[2,3-d]pyrimidin-4-amine], the IC50 in assay [1] and in assay [2] was less than 5 µM each time.

Regarding `COCCN(C)CCC1CCc2c(sc3ncnc(Nc4cccc(Br)c4)c23)C1` (centres unmarked) [Example 87, N-(3-bromophenyl)-7-{2-[(2-methoxyethyl)(methyl)amino]ethyl}-5,6,7,8-tetrahydro[1]benzothieno[2,3-d]pyrimidin-4-amine], the IC50 in assay [1] and in assay [2] was less than 5 µM each time.

Take `COc1ccc(N2CCN(C(=O)C3CCc4c(sc5ncnc(Nc6cccc(Br)c6)c45)C3)CC2)cc1` (centres unmarked) [Example 49, N-(3-bromophenyl)-7-{[4-(4-methoxyphenyl)-1-piperazinyl]carbonyl}-5,6,7,8-tetrahydro[1]benzothieno[2,3-d]pyrimidin-4-amine]: the IC50 in assay [1] and in assay [2] was less than 50 µM each time.

Regarding `Cc1ccc(Oc2ccc(Nc3ncnc4sc5c(c34)CCC(CCN3C(C)CCC3C)C5)cc2C)cn1` (centres unmarked) [Example 235], the IC50 is less than 50 µM in assay [1] and less than 5 µM in assay [2].

`OCCNCCC1CCc2c(sc3ncnc(Nc4ccc5c(cnn5Cc5ccccc5)c4)c23)C1` (centres unmarked) [Example 206, 2-[(2-{4-[(1-benzyl-1H-indazol-5-yl)amino]-5,6,7,8-tetrahydro[1]benzothieno[2,3-d]pyrimidin-7-yl}ethyl)amino]ethanol]: the IC50 in assay [1] and in assay [2] was less than 5 µM throughout.

Consider `CCOC(=O)CC1CCc2c(sc3ncnc(Nc4ccc5c(cnn5Cc5ccccc5)c4)c23)C1` (centres unmarked) [Example 204, ethyl {4-[(1-benzyl-1H-indazol-5-yl)amino]-5,6,7,8-tetrahydro[1]benzothieno[2,3-d]pyrimidin-7-yl}acetate], for which the IC50 in assay [1] was less than 50 µM; in assay [2] it was less than 5 µM.

`Cc1ccc(Oc2ccc(Nc3ncnc4sc5c(c34)CCC(CCN3CCN(C)CC3)C5)cc2C)cn1` (centres unmarked) [Example 224, N-{3-methyl-4-[(6-methylpyridin-3-yl)oxy]phenyl}-7-[2-(4-methylpiperazin-1-yl)ethyl]-5,6,7,8-tetrahydro[1]benzothieno[2,3-d]pyrimidin-4-amine]: the IC50 in assay [1] and in assay [2] was less than 5 µM in each case.

With `Cc1ccc(Oc2ccc(Nc3ncnc4sc5c(c34)CCC(CCNCCN3CCOCC3)C5)cc2C)cn1` (centres unmarked) [Example 220, N-{3-methyl-4-[(6-methylpyridin-3-yl)oxy]phenyl}-7-{2-[(2-morpholin-4-ylethyl)amino]ethyl}-5,6,7,8-tetrahydro[1]benzothieno[2,3-d]pyrimidin-4-amine], the results for the IC50 in assay [1] and in assay [2] were less than 50 µM and less than 5 µM, respectively.

Regarding `CS(=O)(=O)CCNC(=O)CC1CCc2c(sc3ncnc(Nc4cccc(Br)c4)c23)C1` (centres unmarked) [Example 77, 2-{4-[(3-bromophenyl)amino]-5,6,7,8-tetrahydro[1]benzothieno[2,3-d]pyrimidin-7-yl}-N-[2-(methylsulfonyl)ethyl]acetamide], the IC50 in assay [1] and in assay [2] was less than 5 µM throughout.

As to `O=C(O)C1CCc2c(sc3ncnc(Nc4ccc(Br)cc4F)c23)C1` (centres unmarked) [Example 2, 4-[(4-bromo-2-fluorophenyl)amino]-5,6,7,8-tetrahydro[1]benzothieno[2,3-d]pyrimidine-7-carboxylic acid], the IC50 in assay [1] is less than 50 µM; in assay [2] it was less than 5 µM.

In the case of `COCCN1CCN(CCC2CCc3c(sc4ncnc(Nc5ccc(OCc6cccc(F)c6)c(Cl)c5)c34)C2)CC1` (centres unmarked) [Example 168, N-{3-chloro-4-[(3-fluorobenzyl)oxy]phenyl}-7-{2-[4-(2-methoxyethyl)piperazin-1-yl]ethyl}-5,6,7,8-tetrahydro[1]benzothieno[2,3-d]pyrimidin-4-amine], the IC50 in assay [1] and in assay [2] was less than 5 µM in each case.

As for `CN(C)CCNCCC1CCc2c(sc3ncnc(Nc4ccc(F)c(Cl)c4)c23)C1` (centres unmarked) [Example 98, N^1-(2-{4-[(3-chloro-4-fluorophenyl)amino]-5,6,7,8-tetrahydro[1]benzothieno[2,3-d]pyrimidin-7-yl}ethyl)-N^2,N^2-dimethyl-1,2-ethanediamine], the IC50 in assay [1] and in assay [2] was less than 5 µM in each case.

For the compound `COCCN1CCN(C(=O)CC2CCc3c(sc4ncnc(Nc5cccc(Br)c5)c34)C2)CC1` (centres unmarked) [Example 91, N-(3-bromophenyl)-7-{2-[4-(2-methoxyethyl)-1-piperazinyl]-2-oxoethyl}-5,6,7,8-tetrahydro[1]benzothieno[2,3-d]pyrimidin-4-amine], the IC50 in assay [1] and in assay [2] was less than 50 µM in each case.

Take `CS(=O)(=O)OCCC1CCc2c(sc3ncnc(Nc4ccc(OCc5ccccn5)c(Cl)c4)c23)C1` (centres unmarked) [Example 175, Methanesulfonic acid 2-{4-[3-chloro-4-(pyridin-2-ylmethoxy)-phenylamino]-5,6,7,8-tetrahydro-benzo[4,5]thieno[2,3-d]pyrimidin-7-yl}-ethyl ester]: the IC50 in assay [1] and in assay [2] was less than 5 µM throughout.

The values are drawn from patent US7238701B2, “Substituted tetrahydrobenzothienopyrimidinamine compounds useful for treating hyper-proliferative disorders” (Bayer Pharmaceuticals Corporation, priority 2003, dated 2007).
